Like-named read-outs stand apart in the source and are kept apart here.
Tests used:
[1] = test system: KPC-2 producing K. pneumoniae (ATCC BAA-1705); assay: Synergistic broth micro-dilution MIC (checkerboard); format: cell-based, Klebsiella pneumoniae; conditions: ATCC BAA-1705
[2] = test system: KPC2 K. pneumoniae ATCC BAA 1705; assay: Mice systemic infection model; format: in vivo; conditions: Klebsiella pneumoniae
[3] = test system: E. cloacae 01 MGH 049 (KPC2, AmpC); assay: Synergistic broth micro-dilution MIC; format: cell-based; conditions: BLI at 4 μg/mL
[4] = test system: K. pneumoniae UMM3 (KPC2); assay: Synergistic broth micro-dilution MIC; format: cell-based, Klebsiella pneumoniae; conditions: BLI at 4 μg/mL
[5] = test system: K. pneumoniae NCTC 13438 (KPC3); assay: Synergistic broth micro-dilution MIC; format: cell-based, Klebsiella pneumoniae; conditions: BLI at 4 μg/mL
[6] = test system: KPC2 K. pneumoniae ATCC BAA 1705; assay: Mice systemic infection model; format: in vivo; conditions: sub-cutaneous, printed as piperacillin:BLI dose
[7] = test system: KPC-3 expressing E. coli (J53 R6206); assay: microbe, parasite or virus in culture; format: cell-based, Escherichia coli
Method: The β-lactam compound was tested for in vitro antibacterial activities by the broth micro-dilution or agar dilution method as specified in documents published by Clinical and Laboratory Standards Institute (CLSI), USA (formerly NCCLS). Approved standard M7-A7, January 2006, CLSI, Wayne, Pa., USA and M100-S18, January 2008, CLSI, Wayne, Pa., USA.
In agar dilution method briefly, stock solutions of the cephalosporins for veterinary use (e.g. 2 mg/mL) was made in water, 0.1M phosphate buffers or appropriate solvents and the solution was serially two fold diluted. Compound-1 was dissolved in water and Tazobactam (comparator BLI) in 0.1M phosphate buffer, pH 6.0 to get a solution of 1 mg/mL. Cephalosporins were screened in a concentration range of 0.5-32 μg/mL. For combination, Tazobactam or the Compound-1 described herein were tested at a fixed concentration of 4 μg/mL along with the cephalosporins concentration ranging from 0.5 to 32 μg/mL. […] The compound of formula (I) and Tazobactam were also tested individually. The bacterial inoculum was prepared by picking 3 to 5 well isolated bacterial colonies with the same morphological appearance from an 18-24 h old culture and adjusting the turbidity of the saline suspension to 0.5 McFarland turbidity standard equivalent to a bacterial population of ˜1×10^8 CFU per mL of suspension. The suspension was diluted 1:10 in saline to get a bacterial population of ˜1×10^7 CFU/mL as inoculum. This bacterial inoculum was inoculated onto the prepared petri dishes by a multipoint inoculator with each inoculum spot containing ˜1×10^4 CFU of the bacterial strain. The inoculated petri dishes were incubated at 35° C. in an ambient atmosphere for 18-20 h.

[8] = test system: E. coli Ecoli233 (KPC3); assay: Synergistic broth micro-dilution MIC; format: cell-based, Escherichia coli
[9] = BLI at 4 μg/mL, E. coli J53 R6206

C[C@]1(Cn2ccnn2)[C@H](C(=O)O)N2C(=O)C[C@H]2S1(=O)=O [Tazobactam]
MIC of Cefquinome in combination with BLI ([1]; BLI at 1 μg/mL): >64 µg/mL | MIC of Ceftiofur in combination with BLI ([1]; BLI at 1 μg/mL): >64 µg/mL | MIC of Cefepime in combination with BLI ([1]; BLI at 2 μg/mL): 64 µg/mL | MIC of Cefotaxime in combination with BLI ([1]; BLI at 2 μg/mL): ≥64 µg/mL | MIC of Cefquinome in combination with BLI ([1]; BLI at 2 μg/mL): >64 µg/mL | MIC of Ceftazidime in combination with BLI ([1]; BLI at 2 μg/mL): >64 µg/mL | MIC of Ceftiofur in combination with BLI ([1]; BLI at 2 μg/mL): >64 µg/mL | MIC of Ceftobiprole in combination with BLI ([1]; BLI at 2 μg/mL): >64 µg/mL | MIC of Imipenem in combination with BLI ([1]; BLI at 2 μg/mL): 16 µg/mL | MIC of Meropenem in combination with BLI ([1]; BLI at 2 μg/mL): 32 µg/mL | MIC of Aztreonam in combination with BLI ([1]; BLI at 4 μg/mL): >64 µg/mL | MIC of Cefadroxil in combination with BLI ([1]; BLI at 4 μg/mL): >64 µg/mL | MIC of Cefalonium in combination with BLI ([1]; BLI at 4 μg/mL): >64 µg/mL | MIC of Cefepime in combination with BLI ([1]; BLI at 4 μg/mL): 64 µg/mL | MIC of Cefotaxime in combination with BLI ([1]; BLI at 4 μg/mL): 32 to 64 µg/mL | MIC of Cefquinome in combination with BLI ([1]; BLI at 4 μg/mL): >64 µg/mL | MIC of Ceftazidime in combination with BLI ([1]; BLI at 4 μg/mL): >64 µg/mL | MIC of Ceftiofur in combination with BLI ([1]; BLI at 4 μg/mL): >64 µg/mL | MIC of Ceftobiprole in combination with BLI ([1]; BLI at 4 μg/mL): >64 µg/mL | MIC of Ertapenem in combination with BLI ([1]; BLI at 4 μg/mL): >64 µg/mL | MIC of Faropenem in combination with BLI ([1]; BLI at 4 μg/mL): >64 µg/mL | MIC of Imipenem in combination with BLI ([1]; BLI at 4 μg/mL): 16 µg/mL | MIC of Meropenem in combination with BLI ([1]; BLI at 4 μg/mL): 32 µg/mL | MIC of Cefepime in combination with BLI ([1]; BLI at 8 μg/mL): 32 µg/mL | MIC of Cefotaxime in combination with BLI ([1]; BLI at 8 μg/mL): 32 µg/mL | MIC of Cefquinome in combination with BLI ([1]; BLI at 8 μg/mL): 64 µg/mL | MIC of Ceftazidime in combination with BLI ([1]; BLI at 8 μg/mL): >64 µg/mL | MIC of Ceftiofur in combination with BLI ([1]; BLI at 8 μg/mL): >64 µg/mL | MIC of Ceftobiprole in combination with BLI ([1]; BLI at 8 μg/mL): >64 µg/mL | MIC of Ertapenem in combination with BLI ([1]; BLI at 8 μg/mL): >64 µg/mL | MIC of Faropenem in combination with BLI ([1]; BLI at 8 μg/mL): >64 µg/mL | MIC of Imipenem in combination with BLI ([1]; BLI at 8 μg/mL): 8 to 16 µg/mL | MIC of Meropenem in combination with BLI ([1]; BLI at 8 μg/mL): 16 to 32 µg/mL | MIC of Aztreonam in combination with BLI ([1]; BLI at 16 μg/mL): >64 µg/mL | MIC of Cefadroxil in combination with BLI ([1]; BLI at 16 μg/mL): >64 µg/mL | MIC of Cefalonium in combination with BLI ([1]; BLI at 16 μg/mL): >64 µg/mL | MIC of Cefepime in combination with BLI ([1]; BLI at 16 μg/mL): 32 µg/mL | MIC of Cefotaxime in combination with BLI ([1]; BLI at 16 μg/mL): 32 µg/mL | MIC of Cefquinome in combination with BLI ([1]; BLI at 16 μg/mL): 64 µg/mL | MIC of Ceftazidime in combination with BLI ([1]; BLI at 16 μg/mL): >64 µg/mL | MIC of Ceftiofur in combination with BLI ([1]; BLI at 16 μg/mL): >64 µg/mL | MIC of Ceftobiprole in combination with BLI ([1]; BLI at 16 μg/mL): >64 µg/mL | MIC of Ertapenem in combination with BLI ([1]; BLI at 16 μg/mL): 64 µg/mL | MIC of Faropenem in combination with BLI ([1]; BLI at 16 μg/mL): >64 µg/mL | MIC of Imipenem in combination with BLI ([1]; BLI at 16 μg/mL): 8 µg/mL | MIC of Meropenem in combination with BLI ([1]; BLI at 16 μg/mL): 8 to 16 µg/mL | MIC of Cefquinome in combination with BLI ([1]; BLI at 32 μg/mL): 64 µg/mL | MIC of Ceftiofur in combination with BLI ([1]; BLI at 32 μg/mL): 64 µg/mL | MIC of Aztreonam in combination with BLI ([1]; BLI at 64 μg/mL): >64 µg/mL | MIC of Cefadroxil in combination with BLI ([1]; BLI at 64 μg/mL): >64 µg/mL | MIC of Cefalonium in combination with BLI ([1]; BLI at 64 μg/mL): >64 µg/mL | MIC of Cefepime in combination with BLI ([1]; BLI at 64 μg/mL): 32 µg/mL | MIC of Cefotaxime in combination with BLI ([1]; BLI at 64 μg/mL): 32 µg/mL | MIC of Cefquinome in combination with BLI ([1]; BLI at 64 μg/mL): 64 µg/mL | MIC of Ceftazidime in combination with BLI ([1]; BLI at 64 μg/mL): 64 µg/mL | MIC of Ceftiofur in combination with BLI ([1]; BLI at 64 μg/mL): 64 µg/mL | MIC of Ceftobiprole in combination with BLI ([1]; BLI at 64 μg/mL): >64 µg/mL | MIC of Ertapenem in combination with BLI ([1]; BLI at 64 μg/mL): 32 µg/mL | MIC of Faropenem in combination with BLI ([1]; BLI at 64 μg/mL): >64 µg/mL | MIC of Imipenem in combination with BLI ([1]; BLI at 64 μg/mL): 4 to 8 µg/mL | MIC of Meropenem in combination with BLI ([1]; BLI at 64 μg/mL): 4 µg/mL | ED50 ([2]; BAA1705, 168 h, read-out: ED50, single agent): > 200 mg/kg | ED50 ([2]; BAA1705, BLI fixed at 64 mg/kg, mice, sub-cutaneous, with cilastatin, read-out: ED50 of Imipenem + BLI): 4 mg/kg | MIC of Imipenem in combination with BLI [3]: 8 µg/mL | MIC of Imipenem in combination with BLI [4]: 4 µg/mL | MIC of Imipenem in combination with BLI [5]: 64 µg/mL | ED50 of Piperacillin:BLI at 1:1 ratio [6]: >200:>200 mg/kg | ED50 of Piperacillin:BLI at 1:1 ratio ([6]; listed as tazobactam): > 200 mg/kg | MIC of Cefadroxil in combination with BLI [7, 9]: >32 µg/mL | MIC of Cefalonium in combination with BLI [7, 9]: 32 µg/mL | MIC of Cefquinome in combination with BLI [7, 9]: 8 µg/mL | MIC of Ceftiofur in combination with BLI [7, 9]: 2 µg/mL | MIC ([7]; Escherichia coli, read-out: MIC of BLI alone): > 16 µg/mL | MIC of Imipenem in combination with BLI ([8]; BLI at 4 μg/mL): 8 µg/mL | MIC of Imipenem in combination with BLI ([8]; BLI at 16 μg/mL): 8 µg/mL

Reference: patent US10201532B2, “Compounds and their use” (ALLECRA THERAPEUTICS GMBH, priority 2010, dated 2019)
